# Measured values as given in publication PMC5889877, “Ex Vivo Cardiotoxicity of Antineoplastic Casiopeinas Is Mediated through Energetic Dysfunction and Triggered Mitochondrial-Dependent Apoptosis” (Oxidative Medicine and Cellular Longevity, 2018).
# Like-named read-outs stand apart in the source and are kept apart here. Marks after values point to notes of the source that are not given here.
# Columns and labels:
# H9c2 cells = test: Mitochondrial anion superoxide production, MitoSOX flow cytometry; type: cell-based; settings: for increase in MitoSOX mean intensity (anion superoxide production): H9c2, acute, Antimycin A 10 μg/mL, Doxo 5 μM
# Description: (§6) Thiol groups in the adenine nucleotide translocase were measured by eosin 5-maleimide interaction (EMA) with cysteine residues susceptible to oxidative stress or oxidizing agents [21] and followed by SDS/PAGE electrophoresis. […] Experiments for anion superoxide production were performed in intact cardiomyoblasts using the fluorescent probe MitoSOX (Molecular Probes) in the flow cytometer. H9c2 cells were loaded with MitoSOX during 15 min at 37°C with a cell density of 100,000 cells/mL (final concentration of MitoSOX 5 μM). Afterwards, the cells were subjected to Cas III-Ea treatment (4 or 20 μM); DOXO (5 μM) and Antimycin A (10 μg/mL) were used as positive controls. Finally, the cells were washed and analyzed on a FACSCanto II (BD Biosciences). FACS data was analyzed using FlowJo version 10.0 (Tree Star).
# caspase 9 = test: Caspase-Glo 9 activity in cell lysates; type: cell-based, rat; settings: cardiomyocytes treated at IC50
# Source text: (§1) Ventricular cardiomyocytes were obtained from male Wistar rats (250–300 g) by digestion with collagenase type II as previously described. Cells were washed in Tyrode solution (mM): 130 NaCl, 5.4 KCl, 0.4 NaH2PO4, 0.5 MgCl2, 25 HEPES, and 5 glucose with pH 7.4. After isolation, cells were cultivated at a density of 3.2 × 10^3 viable cells/well in 96-well plates pretreated with laminin in M-199 medium supplemented in mM with 5 taurine, 5 creatine, 2 L-carnitine, 2.5 sodium pyruvate, and penicillin-streptomycin at 100 U·ml^−1 and 100 μg·ml^−1, respectively, at 37°C, with 5% CO2 and 95% air. After incubation for three hours, varying concentrations of Cas were tested in triplicate, exposing the myocytes during 24 hours to each treatment. At the end of the incubation period, the cytotoxicity of Cas was measured using the Alamar Blue viability test (Life Technologies, Carlsbad, CA, USA). Release of cytoplasmic lactate dehydrogenase (LDH) was determined using CytoTox-ONE homogeneous membrane integrity kit (Promega Madison, WI, USA). The activity of caspases 3/7 and caspase 9 was measured in cell lysates using caspase-Glo 3/7 and caspase-Glo 9 test luminescent assay (Promega, Madison, WI, USA), respectively. The cardiomyoblast cell line H9c2 (ATCC CRL-1446) was maintained using standard procedures in DMEM supplemented with 10% fetal bovine serum prior to the oxidative stress experiments.
# isolated rat hearts [1] = test: Langendorff-perfused isolated rat heart: mechanical performance (RPP, HR, ±dP/dt, cardiac efficiency); settings: for decrease of cardiac efficiency (CE): at IC50 for RPP; for +dP/dt × 1000 (contraction rate) / Cardiac efficiency / −dP/dt × 1000 (relaxation rate): hearts treated at the IC50; for t 0.5, time for half-inhibition of RPP / RPP reduction from baseline: 5 μM; for heart rate (HR) reduction: perfused at 5 μM; for IC50: read-out: IC50, half-maximal inhibitory concentration for RPP (heart contractile function)
# Description: (§2) Male Wistar rats (250–300 g) were injected with heparin (10^3 U·kg^−1, i.p.) 20 minutes prior to anesthesia with pentobarbital (100 mg·kg^−1, i.p.). When bilateral corneal reflex was absent, the heart was excised through an abdominal approach. Then, the ascending aorta was visualized and cut and the heart was placed in a cardioplegic solution. To avoid ischemia, the time between cutting the diaphragm to placing the heart in the solution was less than 60 seconds. The hearts were mounted in accordance with the Langendorff model and perfused at a constant flow (12 ml·min^−1) with a Krebs-Henseleit buffer as previously described. A latex balloon connected to a pressure transducer filled with saline solution was inserted into the left ventricle after establishing autonomous contraction. The pulmonary artery was cannulated and connected to a closed chamber using a Clark-type oxygen electrode (Yellow Springs Instruments, Yellow Springs, Ohio) to measure myocardial oxygen consumption (MVO2) in the coronary effluent. The rate of MVO2 was calculated as the difference between the concentration in the K-H buffer before (100%) and after perfusion. Data Trax software (WPI, Sarasota, Florida) was used for continuous recording of the heart rate (HR), left ventricular pressure (LVP), MVO2, and maximum positive and negative derivative of left ventricular pressure (±dP/dt). The baseline was established during 10–15 minutes of K-H perfusion. Each concentration of Cas or Doxo remained in the heart for 30 min. Hearts in the control group were perfused with K-H buffer during the whole experimental time. Rate pressure product (RPP = HR × LVP) and cardiac efficiency ([…]) were calculated as previously reported.
# cytochrome c = test: Mitochondrial cytochrome c content by Western blot; parameters: species or system rat; settings: heart mitochondria after 30 min perfusion at IC50
# Description: (§3) To measure mitochondrial oxygen consumption, mitochondrial membrane potential, and Ca^2+ uptake, cytochrome c samples were prepared as follows: after perfusion, heart tissue from the left ventricle was minced and homogenized in cold mitochondrial isolation medium (in mM: 125 KCl, 1 EDTA, and 10 HEPES-HCl; pH 7.3). The mitochondrial fraction was obtained by differential centrifugation using the protease Nagarse, as previously described. Mitochondrial oxygen consumption was measured using a Clark-type oxygen electrode. The experiments were carried out in respiration assay medium containing 125 KCl, 10 HEPES-HCl, and 3 KH2PO4 (in mM) with pH 7.3. State 4 respiration was measured in the presence of 10 mM glutamate-malate, and state 3 respiration was evaluated after addition of 100 μM ADP. Maximal respiration was determined with 0.08 μM of carbonyl cyanide m-chlorophenyl hydrazine (CCCP). The mitochondrial membrane potential was measured by fluorometry using 5 μM safranine. Mitochondrial Ca^2+ uptake was determined with the metalochromic indicator, Arsenazo III, or calcium green 5N (5N-CG), using a medium containing 50 μM Arsenazo or 10 μM 5N-CG, 10 mM succinate plus rotenone (0.1 μg·ml^−1), 200 μM ADP, and 0.25 μg oligomycin A. Pulses of 10 nmol Ca^+2 were added every 3 minutes to reach a Ca^+2 release due to MPT opening. […]
# [2] = tested on: adult rat ventricular myocytes; test: Cardiomyocyte viability, Alamar Blue; type: cell-based; settings: 24 h treatment, read-out: LD50 (IC50) for cardiomyocyte viability
# Source text: as §1
# isolated rat hearts [3] = test: Myocardial oxygen consumption and energetic metabolites (ATP, PCr) in perfused hearts; settings: Cas at IC50, Doxo 5 μM
# Description: as §2
# (§4) To measure the energetic metabolites ATP, phosphocreatine (PCr), and aconitase activity at the end of the perfusion protocols, samples were prepared as follows: the hearts were removed from the perfusion system by cutting the aorta and immediately flash-frozen with liquid N2, weighed, and stored at −80°C. Afterward, the hearts were homogenized in ice-cold buffer containing 250 mM sucrose, 10 mM HEPES, and 1 mM EDTA (pH 7.4). For enzymatic determination, aliquots of the homogenate were immediately frozen in liquid nitrogen and stored at −80°C. Quantification of ATP and PCr was carried out in a HPLC system with a dual-pump gradient (Waters Chromatography, Toronto, Canada) as previously described.
# caspases 3 and 7 = test: Caspase-Glo 3/7 activity in cell lysates; type: cell-based, rat; settings: cardiomyocytes treated at IC50, compared to Doxo or the control
# Source text: as §1
# [4] = tested on: mitochondrial permeability transition pore; test: Mitochondrial Ca2+ retention capacity (MPT opening); parameters: species or system rat; settings: for decrease of mitochondrial Ca2+ retention capacity: mitochondria from hearts treated at IC50, versus control
# Description: (§5) To measure mitochondrial oxygen consumption, mitochondrial membrane potential, and Ca^2+ uptake, cytochrome c samples were prepared as follows: after perfusion, heart tissue from the left ventricle was minced and homogenized in cold mitochondrial isolation medium (in mM: 125 KCl, 1 EDTA, and 10 HEPES-HCl; pH 7.3). The mitochondrial fraction was obtained by differential centrifugation using the protease Nagarse, as previously described. Mitochondrial oxygen consumption was measured using a Clark-type oxygen electrode. The experiments were carried out in respiration assay medium containing 125 KCl, 10 HEPES-HCl, and 3 KH2PO4 (in mM) with pH 7.3. State 4 respiration was measured in the presence of 10 mM glutamate-malate, and state 3 respiration was evaluated after addition of 100 μM ADP. Maximal respiration was determined with 0.08 μM of carbonyl cyanide m-chlorophenyl hydrazine (CCCP). The mitochondrial membrane potential was measured by fluorometry using 5 μM safranine. Mitochondrial Ca^2+ uptake was determined with the metalochromic indicator, Arsenazo III, or calcium green 5N (5N-CG), using a medium containing 50 μM Arsenazo or 10 μM 5N-CG, 10 mM succinate plus rotenone (0.1 μg·ml^−1), 200 μM ADP, and 0.25 μg oligomycin A. Pulses of 10 nmol Ca^+2 were added every 3 minutes to reach a Ca^+2 release due to MPT opening. Mitochondrial cytochrome c quantification from Cas-treated hearts was performed using Western blot analysis as described previously. The blots were developed with Luminata crescendo substrate (Merck Millipore, Darmstadt, Germany) and detected with VisionWorks LS-UVP Chimio System (BioSpectrum 415 Imaging System, Cambridge, UK).
# isolated cardiomyocytes = test: LDH release (CytoTox-ONE); type: cell-based, rat; settings: cardiomyocytes treated at IC50 (II-gly 2 μM, Doxo 10 μM)
# Source text: as §1
# [5] = tested on: mitochondria isolated from Cas-treated hearts; test: Respiratory activity of mitochondria isolated from treated hearts (Clark-type oxygen electrode); parameters: species or system rat; settings: for State 4 respiration: 10 mM glutamate-malate; for Respiratory control / State 3 respiration: malate/glutamate; for State 3 respiration: after 100 μM ADP; for Max. respiration: 0.08 μM CCCP
# Description: as §5
# [6] = biological target: T1, adenine nucleotide translocase (Rattus norvegicus, UniProt Q05962); test: Thiol groups of adenine nucleotide translocase (eosin 5-maleimide); settings: mitochondria from hearts treated at IC50
# T1 construct: adenine nucleotide translocase from mitochondria isolated from Cas-treated hearts; from tissue; host or cells: mitochondria isolated from Casiopeina-perfused rat hearts
# T1 sequence (Q05962 1-298): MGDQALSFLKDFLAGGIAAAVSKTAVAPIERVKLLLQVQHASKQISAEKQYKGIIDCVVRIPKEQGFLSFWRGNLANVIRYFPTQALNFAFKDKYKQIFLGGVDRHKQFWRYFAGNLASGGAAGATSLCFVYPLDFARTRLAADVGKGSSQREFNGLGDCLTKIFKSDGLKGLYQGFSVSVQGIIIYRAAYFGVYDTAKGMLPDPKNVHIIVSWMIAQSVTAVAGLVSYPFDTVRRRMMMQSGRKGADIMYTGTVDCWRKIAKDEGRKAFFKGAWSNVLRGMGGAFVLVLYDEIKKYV
# Description: as §6
# [7] = tested on: mitochondria isolated from treated hearts; test: Mitochondrial membrane potential (safranine fluorometry); parameters: species or system rat
# Description: as §3
# aconitase = test: Mitochondrial aconitase activity in heart homogenates; settings: ex vivo heart, Cas at IC50, Doxo 5 μM
# Description: as §4
# subcutaneous tumors = settings: nude mice ref 30; cited from earlier work
# [8] = isolated rat heart, at 30 min perfusion
# [9] = mitochondria from treated hearts, CsA 0.5 μM added in vitro
# [10] = mitochondria from CsA-III-Ea-treated hearts
# [11] = mitochondria from hearts perfused with 10 μM III-Ea alone
SMILES,increase in MitoSOX mean intensity (anion superoxide production) (H9c2 cells) [fold],decrease of cardiac efficiency (CE) (isolated rat hearts [1]) [%],+dP/dt × 1000 (contraction rate) (isolated rat hearts [1]),Cardiac efficiency (isolated rat hearts [1]),−dP/dt × 1000 (relaxation rate) (isolated rat hearts [1]),"t 0.5, time for half-inhibition of RPP (isolated rat hearts [1]; isolated rat heart)",heart rate (HR) reduction (isolated rat hearts [1]),IC50 (isolated rat hearts [1]; [8]) [µM],IC50 [2] [µM],decrease of mitochondrial Ca2+ retention capacity [4] [%],"protective effect of CsA on Ca2+ retention capacity [4, 9] [%]",increase in LDH release compared to the control (isolated cardiomyocytes) [fold],State 4 respiration [5] [nmol O min^−1·mg^−1],Respiratory control [5],State 3 respiration [5],additional MVO2 to generate the same contractile force compared to control hearts (RPP/MVO2 ratio) (isolated rat hearts [3]) [fold],change in MVO2 (isolated rat hearts [3]),decrease in ATP content (isolated rat hearts [3]) [%],Max. respiration [5],also measured
CCCCCC[C@H]1C(=O)O[C@H](C)[C@H](NC(=O)c2cccc(NC=O)c2O)C(=O)O[C@@H](C)[C@@H]1OC(=O)CC(C)C [Antimycin A],9,,,,,,,,,,,,,,,,,,,
"Cc1ccnc2c1ccc1c(C)ccnc12.NCC(=O)[O-].O.O.O=[N+]([O-])[O-].[Cu+2] [Cas II-gly, Aqua(4,7-dimethyl-1,10-phenanthroline)(glycinate)copper(II)nitrate]",,23,2.0 ± 0.13^∗ mmHg·s^−1,4.8 ± 0.81 RPP · MVO2 ^−1,−0.7 ± 0.09^∗ mmHg·s^−1,29 ± 1.0^d min,not affected,5.5 ± 0.5,2 ± 0.5,46.5,60,3.5,13.0 ± 5.0,1.6 ± 0.3^∗,20.2 ± 7.3^∗ nmol O min^−1·mg^−1,,,,,increase in caspase 9 activity (caspase 9): 1.7 fold; mitochondrial cytochrome c content (cytochrome c): reduction of cytochrome c; PCr/ATP ratio (isolated rat hearts [3]): augmented; increase in activity of caspases 3 and 7 (caspases 3 and 7): ~ 4 fold; decrease in state 3 respiration rate ([5]; versus control): 77%; reduction in maximal respiration ([5]; versus control): 82%
"CC(=O)C=C(C)[O-].Cc1ccnc2c1ccc1c(C)ccnc12.O.O.O=[N+]([O-])[O-].[Cu+2] [Cas III-Ea, Aqua(4,7-dimethyl-1,10-phenanthroline)(acetylacetonate)copper(II)nitrate]",,47,2.4 ± 0.23^∗ mmHg·s^−1,3.3 ± 0.2^∗ RPP · MVO2 ^−1,−0.8 ± 0.13^∗ mmHg·s^−1,21 ± 5.0^d min,not affected,1.3 ± 0.2,2 ± 0.4,50.5,,,24.5 ± 5.4,1.5 ± 0.2^∗,37.3 ± 2.7^∗ nmol O min^−1·mg^−1,1.47,no changes,56,48.3 ± 5.7^∗ nmol O min^−1·mg^−1,"change in anion superoxide production (MitoSOX) (H9c2 cells; H9c2 intact cells, 4 or 20 μM): no change; t 0.5 of decline of contractility (RPP) (isolated rat hearts [1]; 1 μM CsA perfused 10 min, then 10 μM III-Ea): 11.98 min; RPP reduction from baseline (isolated rat hearts [1]; at 20 min): 48%; RPP reduction from baseline (isolated rat hearts [1]; at 30 min): 97%; t 0.5 of decline of contractility (RPP) (isolated rat hearts [1]; 10 μM III-Ea alone): 9.65 min; oxidation state of adenine nucleotide translocase thiol groups [6]: twofold increase; more calcium tolerated than mitochondria from III-Ea hearts [4, 10]: 69%; calcium retention capacity ([4]; mitochondria from CsA-III-Ea-treated hearts (1 μM CsA before 10 μM III-Ea)): 226 ± 13 nmol/mg; calcium retention capacity [4, 11]: 133 ± 14 nmol/mg; delay in the opening of MPT in the presence of CsA [4, 9]: 1.8 fold; mitochondrial membrane potential after addition of 10 μM Ca2+ [7, 10]: remained polarized; mitochondrial membrane potential after addition of 10 μM Ca2+ [7, 11]: depolarization"
"COc1cccc2c1C(=O)c1c(O)c3c(c(O)c1C2=O)C[C@@](O)(C(=O)CO)C[C@@H]3O[C@H]1C[C@H](N)[C@H](O)[C@H](C)O1 [Doxo, Doxorubicin, reference compound]",4,55,2.1 ± 0.23^∗ mmHg·s^−1,2.8 ± 0.1^∗ RPP · MVO2 ^−1,−0.8 ± 0.18^∗ mmHg·s^−1,18.6 ± 4.0^d min,24%,,,,51,4.7,18 ± 2.0,1 ± 0.3^∗,25 ± 8.8^∗ nmol O min^−1·mg^−1,1.8,no changes,74,25 ± 15.1^∗ nmol O min^−1·mg^−1,"IC50 (isolated rat hearts [1]; Rattus norvegicus, 0.5 h): 5 ± 0.3 µM; IC50 ([2]; Rattus norvegicus, Ventricular myocyte): 10 ± 0.5 µM; PCr levels (isolated rat hearts [3]): decreased; aconitase activity (aconitase): decreased; reduction of the volume of subcutaneous tumors (subcutaneous tumors): 20%"
